This note sets out measurements from ChEMBL document CHEMBL1201862, “PubChem BioAssay data set” (2004).

Assay [1] can be described thus: HIV-1 Env-mediated cell fusion inhibitors, dose response, CCR5-tropic Env (AID 2279). The class given is functional.
The target of assay [2] is T1, Calpain-2 catalytic subunit (Sus scrofa, UniProt P43367).
T1 sequence (P43367 whole entry): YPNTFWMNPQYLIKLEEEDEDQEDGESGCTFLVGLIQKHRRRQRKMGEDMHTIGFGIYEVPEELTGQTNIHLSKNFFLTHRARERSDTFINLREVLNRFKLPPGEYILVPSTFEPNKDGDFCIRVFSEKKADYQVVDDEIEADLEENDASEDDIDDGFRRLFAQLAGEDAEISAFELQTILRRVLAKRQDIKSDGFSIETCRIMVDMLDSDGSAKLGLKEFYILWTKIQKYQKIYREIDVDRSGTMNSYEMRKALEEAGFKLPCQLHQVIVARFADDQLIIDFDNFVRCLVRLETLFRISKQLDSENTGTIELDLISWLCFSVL
The assay is described as follows: pig calpain II inhibitor potency, dose response, biochemical, fluorogenic peptide substrate (AID 1420). The class given is functional.

In assay [3] the target is Eukaryotic translation initiation factor 4E (Mus musculus, UniProt P63073). Description: eIF4E–eIF4G protein interaction inhibitors, dose response, biochemical, TR-FRET (AID 855).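 Note: potency for disrupting eIF4E binding to eIF4GI seen as loss of FRET.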 The class given is functional. On the technique in general: In TR-FRET formats the signal depends on donor and acceptor labels being close together.
The target of assay [4] is Heat shock protein HSP 90-alpha (Homo sapiens, UniProt P07900). The class given is functional, organism-based.
Assay [5] in a line: A cytotoxicity screen of small molecule inhibitors of the PhoP region in Salmonella typhi identified in the primary screen. [Related pubchem assays: 1850, 1864, 1985 ]. The class given is functional.
The target in assay [6] is T2, Voltage-gated N-type calcium channel alpha-1B subunit/Amyloid beta A4 precursor protein-binding family A member 1 (Homo sapiens, UniProt Q00975+Q02410). The class given is protein assay.
The target of another assay is NS3 (Hepatitis C virus, UniProt A3EZJ3). Description: PubChem AID 2173. On the set-up: species or system Hepacivirus hominis.
The target of assay [7] is T2, Voltage-gated N-type calcium channel alpha-1B subunit/Amyloid beta A4 precursor protein-binding family A member 1. The class given is protein assay. The source holds these as a separate data set.
Assay [8] can be described thus: inhibitors of Bluetongue virus cytopathic effect, confirmation, arbovirus, BSR cells (AID 1250).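 Note: protection from viral cytopathic effect measured as cell viability by ATP luminescence.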 The class given is functional. Background: Cytopathic effects are the visible damage that an infection or toxin causes in cultured cells.
For assay [9], the target named is Induced myeloid leukemia cell differentiation protein Mcl-1 (Homo sapiens, UniProt Q07820). The class given is functional.
The target of the next assay is Cytochrome P450 2C9 (Homo sapiens, UniProt P11712). The following applies: Potency.
In the next assay the target is Cytochrome P450 2C19 (Homo sapiens, UniProt P33261). Description: qHTS Assay for Inhibitors and Substrates of Cytochrome P450 2C19. [Related pubchem assays: 410 ]. The class given is ADME. The following applies: read-out: Potency. (In general: qHTS replaces the single test concentration by a dilution series.)
Another assay concerns the target Cytochrome P450 3A4 (Homo sapiens, UniProt P08684). The following applies: Potency.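 Note: confirmatory qHTS run detecting inhibitors and substrates of CYP3A4.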
Assay [10] has as its target Melanin-concentrating hormone receptor 1 (Homo sapiens, UniProt Q99705). The assay is described as follows: Fluorescence-based counterscreen for antagonists of the G-protein coupled receptor 7 (GPR7): cell-based high throughput dose response assay to identify antagonists of the melanin-concentrating hormone receptor 1 (MCHR1). The class given is functional.
In another assay the test system is HeLa. The assay is described as follows: HeLa cell cytotoxicity, dose response, cytotoxicity control, 24 h, cherry-picked samples (AID 504726).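 Note: potency for cytotoxicity as loss of luminescence signal.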 The class given is functional, cell-based. The following applies: Homo sapiens.

Calls of active or inactive are those of the source.

As usually defined, the IC50 is the concentration at which inhibition is half-maximal. What is called EC50 is the midpoint of the concentration-response curve.

Cytochrome P450 2C9, sequence (P11712 whole entry): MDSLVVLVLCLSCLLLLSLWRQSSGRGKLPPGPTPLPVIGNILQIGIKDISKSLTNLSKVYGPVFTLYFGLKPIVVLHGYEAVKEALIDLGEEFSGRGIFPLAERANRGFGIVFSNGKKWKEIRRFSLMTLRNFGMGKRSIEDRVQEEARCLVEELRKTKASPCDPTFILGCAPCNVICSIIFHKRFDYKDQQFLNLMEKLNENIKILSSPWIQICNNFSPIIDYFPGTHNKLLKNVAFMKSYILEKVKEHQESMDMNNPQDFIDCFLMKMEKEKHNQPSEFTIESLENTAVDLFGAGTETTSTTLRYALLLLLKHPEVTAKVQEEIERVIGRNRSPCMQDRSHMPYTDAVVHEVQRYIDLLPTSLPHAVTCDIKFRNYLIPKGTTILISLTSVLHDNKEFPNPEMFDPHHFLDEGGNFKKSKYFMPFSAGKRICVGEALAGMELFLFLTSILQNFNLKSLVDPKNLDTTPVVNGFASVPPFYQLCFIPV
NS3, sequence (A3EZJ3 whole entry): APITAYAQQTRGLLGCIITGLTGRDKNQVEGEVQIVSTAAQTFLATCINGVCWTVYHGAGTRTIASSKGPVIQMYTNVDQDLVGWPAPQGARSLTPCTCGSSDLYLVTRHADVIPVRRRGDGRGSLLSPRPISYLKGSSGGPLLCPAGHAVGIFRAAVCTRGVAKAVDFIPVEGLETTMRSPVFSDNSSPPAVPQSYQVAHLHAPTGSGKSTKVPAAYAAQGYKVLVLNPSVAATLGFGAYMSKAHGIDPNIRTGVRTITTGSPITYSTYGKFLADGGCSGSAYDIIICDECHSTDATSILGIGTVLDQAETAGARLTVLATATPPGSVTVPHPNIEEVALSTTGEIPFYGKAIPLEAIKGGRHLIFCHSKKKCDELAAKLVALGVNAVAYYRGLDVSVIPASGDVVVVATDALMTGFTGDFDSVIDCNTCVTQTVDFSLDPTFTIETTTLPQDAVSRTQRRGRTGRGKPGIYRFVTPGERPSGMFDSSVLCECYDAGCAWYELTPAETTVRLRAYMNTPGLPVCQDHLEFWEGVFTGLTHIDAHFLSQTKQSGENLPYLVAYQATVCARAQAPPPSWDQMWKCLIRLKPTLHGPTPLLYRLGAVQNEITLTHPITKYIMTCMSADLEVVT
T2 sequence (Q00975 whole entry): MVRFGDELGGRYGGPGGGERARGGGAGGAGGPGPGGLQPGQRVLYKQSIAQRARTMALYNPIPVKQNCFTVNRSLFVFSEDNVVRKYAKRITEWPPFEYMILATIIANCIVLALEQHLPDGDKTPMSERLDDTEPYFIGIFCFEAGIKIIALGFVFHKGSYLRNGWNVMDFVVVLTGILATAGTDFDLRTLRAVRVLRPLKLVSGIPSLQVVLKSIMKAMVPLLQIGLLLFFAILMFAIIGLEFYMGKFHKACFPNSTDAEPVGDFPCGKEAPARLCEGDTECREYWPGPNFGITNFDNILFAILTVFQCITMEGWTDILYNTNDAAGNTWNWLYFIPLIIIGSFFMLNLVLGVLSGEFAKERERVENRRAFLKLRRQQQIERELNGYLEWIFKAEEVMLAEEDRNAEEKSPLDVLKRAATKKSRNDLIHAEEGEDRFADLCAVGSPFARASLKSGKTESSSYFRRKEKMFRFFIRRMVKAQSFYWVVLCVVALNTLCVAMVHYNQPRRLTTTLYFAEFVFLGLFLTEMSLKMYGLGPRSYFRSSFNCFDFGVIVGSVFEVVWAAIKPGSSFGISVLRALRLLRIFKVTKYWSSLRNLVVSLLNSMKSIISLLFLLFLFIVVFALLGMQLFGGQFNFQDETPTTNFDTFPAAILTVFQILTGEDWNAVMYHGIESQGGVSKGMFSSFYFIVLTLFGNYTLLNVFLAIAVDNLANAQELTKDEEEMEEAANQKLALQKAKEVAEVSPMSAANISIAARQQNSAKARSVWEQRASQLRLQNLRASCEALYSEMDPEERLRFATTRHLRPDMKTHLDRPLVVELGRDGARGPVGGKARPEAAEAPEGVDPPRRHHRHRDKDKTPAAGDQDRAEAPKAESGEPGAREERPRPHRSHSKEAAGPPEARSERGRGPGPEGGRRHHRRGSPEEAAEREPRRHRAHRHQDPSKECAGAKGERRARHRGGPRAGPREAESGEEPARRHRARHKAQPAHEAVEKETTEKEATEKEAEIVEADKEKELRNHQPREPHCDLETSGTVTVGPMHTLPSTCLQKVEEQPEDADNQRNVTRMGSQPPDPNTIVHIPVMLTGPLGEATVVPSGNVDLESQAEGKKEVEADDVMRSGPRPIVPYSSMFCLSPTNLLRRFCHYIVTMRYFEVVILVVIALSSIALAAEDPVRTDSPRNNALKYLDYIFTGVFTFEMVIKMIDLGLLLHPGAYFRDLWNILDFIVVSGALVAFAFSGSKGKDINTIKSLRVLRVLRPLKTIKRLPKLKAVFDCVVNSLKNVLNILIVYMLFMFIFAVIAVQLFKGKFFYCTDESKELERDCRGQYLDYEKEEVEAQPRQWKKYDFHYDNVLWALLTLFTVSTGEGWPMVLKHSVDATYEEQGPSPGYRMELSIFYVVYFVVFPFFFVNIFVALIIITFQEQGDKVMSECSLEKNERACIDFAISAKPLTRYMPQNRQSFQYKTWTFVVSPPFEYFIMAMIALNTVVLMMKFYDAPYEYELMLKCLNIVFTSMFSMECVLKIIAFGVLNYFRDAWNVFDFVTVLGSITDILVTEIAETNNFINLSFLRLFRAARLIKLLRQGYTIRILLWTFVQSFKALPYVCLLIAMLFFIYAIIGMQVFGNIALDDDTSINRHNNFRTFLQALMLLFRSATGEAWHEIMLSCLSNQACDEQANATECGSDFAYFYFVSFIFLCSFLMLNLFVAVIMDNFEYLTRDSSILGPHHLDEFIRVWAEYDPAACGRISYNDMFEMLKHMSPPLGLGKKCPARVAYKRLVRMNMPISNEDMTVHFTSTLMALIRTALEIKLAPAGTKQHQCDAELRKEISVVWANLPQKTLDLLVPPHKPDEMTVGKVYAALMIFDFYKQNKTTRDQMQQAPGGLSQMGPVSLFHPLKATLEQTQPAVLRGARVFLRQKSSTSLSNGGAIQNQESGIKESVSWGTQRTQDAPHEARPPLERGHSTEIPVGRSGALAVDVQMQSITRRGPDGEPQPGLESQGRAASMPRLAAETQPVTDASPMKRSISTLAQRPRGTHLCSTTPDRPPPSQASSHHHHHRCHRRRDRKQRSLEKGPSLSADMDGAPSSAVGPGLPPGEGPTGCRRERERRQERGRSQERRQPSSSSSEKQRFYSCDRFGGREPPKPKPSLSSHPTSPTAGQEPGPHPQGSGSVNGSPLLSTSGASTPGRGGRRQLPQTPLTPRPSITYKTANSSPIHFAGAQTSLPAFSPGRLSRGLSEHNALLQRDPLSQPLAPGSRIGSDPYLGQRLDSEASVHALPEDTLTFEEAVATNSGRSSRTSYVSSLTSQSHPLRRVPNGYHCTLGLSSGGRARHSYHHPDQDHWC
T2 sequence (Q02410 whole entry): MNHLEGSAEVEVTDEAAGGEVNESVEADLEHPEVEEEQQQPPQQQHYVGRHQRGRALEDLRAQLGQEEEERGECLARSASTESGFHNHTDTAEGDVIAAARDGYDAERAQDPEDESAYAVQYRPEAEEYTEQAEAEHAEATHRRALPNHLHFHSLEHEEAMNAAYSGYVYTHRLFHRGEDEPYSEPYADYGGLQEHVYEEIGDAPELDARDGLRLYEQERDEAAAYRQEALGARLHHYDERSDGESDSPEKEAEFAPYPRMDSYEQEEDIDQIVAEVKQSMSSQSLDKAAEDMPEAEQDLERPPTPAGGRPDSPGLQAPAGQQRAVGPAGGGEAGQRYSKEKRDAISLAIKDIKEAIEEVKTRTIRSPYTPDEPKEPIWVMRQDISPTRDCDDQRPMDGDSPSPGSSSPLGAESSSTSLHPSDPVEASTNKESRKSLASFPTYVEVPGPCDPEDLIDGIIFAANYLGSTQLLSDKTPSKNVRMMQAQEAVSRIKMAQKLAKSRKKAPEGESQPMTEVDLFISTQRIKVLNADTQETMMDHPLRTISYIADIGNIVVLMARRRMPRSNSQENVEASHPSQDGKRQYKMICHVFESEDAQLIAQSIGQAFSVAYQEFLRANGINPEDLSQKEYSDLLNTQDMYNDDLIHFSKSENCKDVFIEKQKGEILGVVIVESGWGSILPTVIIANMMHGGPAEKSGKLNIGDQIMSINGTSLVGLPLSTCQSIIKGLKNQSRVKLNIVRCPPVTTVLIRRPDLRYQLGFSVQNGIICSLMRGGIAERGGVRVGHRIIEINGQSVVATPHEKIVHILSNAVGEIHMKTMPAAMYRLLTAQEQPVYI
Eukaryotic translation initiation factor 4E, sequence (P63073 whole entry): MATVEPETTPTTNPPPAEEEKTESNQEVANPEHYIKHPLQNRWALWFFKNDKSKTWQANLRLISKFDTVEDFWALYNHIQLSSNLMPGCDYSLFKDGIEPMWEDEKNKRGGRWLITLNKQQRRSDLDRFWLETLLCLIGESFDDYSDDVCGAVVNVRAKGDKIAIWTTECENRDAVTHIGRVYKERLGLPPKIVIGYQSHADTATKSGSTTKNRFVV
Melanin-concentrating hormone receptor 1, sequence (Q99705 whole entry): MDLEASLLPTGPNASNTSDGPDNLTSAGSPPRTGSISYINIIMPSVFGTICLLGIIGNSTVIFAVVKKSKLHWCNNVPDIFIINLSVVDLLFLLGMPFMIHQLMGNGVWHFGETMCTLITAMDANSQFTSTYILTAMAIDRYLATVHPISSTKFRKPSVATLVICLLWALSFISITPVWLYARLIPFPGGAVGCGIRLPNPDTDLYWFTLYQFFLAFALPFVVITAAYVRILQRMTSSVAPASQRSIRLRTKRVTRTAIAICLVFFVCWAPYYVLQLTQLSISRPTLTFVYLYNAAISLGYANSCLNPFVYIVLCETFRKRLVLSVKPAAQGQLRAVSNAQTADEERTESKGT

In the case of `CCCCCCCCCCCCCCCC[n+]1ccn(CC(C)=O)c1`, the results for the half-inhibitory concentration (IC50) in assay [1], in assay [2] and in assay [3] were 4.25 µM (active), 21.1 µM (not active) and 10.1 µM (active), respectively. Further, in [4], the AC50 was 2.86 µM (active).

As for `NC1=NC2(CCCCC2)n2c(nc3ccccc32)N1`, in assay [5], the EC50 was > 50 µM (active).

On to `Cc1ccc(-n2cccc2/C=C2\C(=N)N3N=C(c4ccco4)SC3=NC2=O)cc1`, for which the 50% inhibitory concentration (IC50) in assay [6] was 8.99 µM (active); on NS3, 5.31 µM (active); in [7], > 50 µM (inactive); in [8], 26 µM (active); in [9], 1.7 µM (active); in assay [3], 50 µM (inactive).

Consider `CC(=O)c1ccc(OCc2ccccc2)c(C)c1O`, for which, on Cytochrome P450 2C9, the AC50 was 2 µM (inconclusive).

In the case of `COc1ccc(OC2C=CC(C#Cc3ccc(C(C)(C)C)cc3)OC2CO)cc1` (stereo not given), the results for the AC50 at Cytochrome P450 2C19, at Cytochrome P450 3A4 and at Cytochrome P450 2C9 were 2.51 µM (inconclusive), 3.98 µM (inconclusive) and 0.398 µM (inconclusive), respectively.

On to `COc1cccc(CC2(CO)CCCN(Cc3c(C)cc(C)cc3-n3cccn3)C2)c1` (stereo not given), for which the 50% inhibitory concentration (IC50) in assay [10] was 12.6 µM (not active).

`O=C(Nc1ccc(-c2nc3ccccc3[nH]2)cc1)c1ccccc1NS(=O)(=O)c1ccc(F)cc1`: the 50% inhibitory concentration (IC50) in assay [1] is > 50 µM (active).

For the molecule `O=C(Nc1nc(-c2ccco2)c(-c2ccco2)s1)C1CCC1`, at NS3, the IC50 was 30.4 µM (not active).

`O=S(=O)(Nc1ncccn1)c1ccc(NC(=S)Nc2cccc(Cl)c2)cc1`: in assay [5], the 50% effective concentration (EC50) is > 50 µM (active).

For the molecule `CC(Sc1ncccn1)C(=O)NNC(=O)c1cccc(Cl)c1` (stereo not given), in the assay with HeLa, the AC50 is 46.6 µM (active).
